The results in this text go back to patent publication US10766902B2, “Wee-1 inhibiting pyrazolopyrimidinone compounds” (ALMAC DISCOVERY LIMITED, priority 2016, dated 2020).

Experiment [1] addresses SRC (Homo sapiens (Human), UniProt P12931). The experiment is described as follows: SelectScreen Kinase Profiling: SRC. The experiment is classed as biochemical. The settings on record: tested at 300-350 nM. The text has this: (§1) Table 4 below highlights the selectivity of a representative compound of the invention, Example 5, against a panel of 50 kinases (assessed using the Invitrogen SelectScreen® Kinase Profiling Service).

For experiment [2], the target named is MAP4K4 (HGK) (Homo sapiens (Human), UniProt O95819). The experiment is described as follows: SelectScreen Kinase Profiling: MAP4K4 (HGK). Particulars: tested at 300-350 nM. The experiment is classed as biochemical.
Text: as §1

Experiment [3] concerns the target ERBB2 (HER2) (Homo sapiens (Human), UniProt P04626). The experiment is described as follows: SelectScreen Kinase Profiling: ERBB2 (HER2). The experiment is classed as biochemical. The settings on record: tested at 300-350 nM.
Text: as §1

Experiment [4] addresses PHKG2 (Homo sapiens (Human), UniProt P15735). The experiment is described as follows: SelectScreen Kinase Profiling: PHKG2. The experiment is classed as biochemical. The settings on record: tested at 300-350 nM.
Text: as §1

Experiment [5] deals with EGFR (ErbB1) (Homo sapiens (Human), UniProt P00533). The experiment is described as follows: SelectScreen Kinase Profiling: EGFR (ErbB1). The experiment is classed as biochemical. Particulars: tested at 300-350 nM.
Text: as §1

Experiment [6] addresses MAP2K1 (MEK1) (Homo sapiens (Human), UniProt Q02750). The experiment is described as follows: SelectScreen Kinase Profiling: MAP2K1 (MEK1). The experiment is classed as biochemical. Particulars: tested at 300-350 nM.
Text: as §1

Experiment [7] concerns the target IKBKB (IKK beta) (Homo sapiens (Human), UniProt O14920). The experiment is described as follows: SelectScreen Kinase Profiling: IKBKB (IKK beta). The experiment is classed as biochemical. Particulars: tested at 300-350 nM.
Text: as §1

Experiment [8] concerns the target PRKACA (PKA) (Homo sapiens (Human), UniProt P17612). The experiment is described as follows: SelectScreen Kinase Profiling: PRKACA (PKA). The experiment is classed as biochemical. The settings on record: tested at 300-350 nM.
Text: as §1

The target of experiment [9] is ACVR1B (ALK4) (Homo sapiens (Human), UniProt P36896). The experiment is described as follows: SelectScreen Kinase Profiling: ACVR1B (ALK4). The experiment is classed as biochemical. The settings on record: tested at 300-350 nM.
Text: as §1

Experiment [10] concerns SK-LU-1 cells. The experiment is described as follows: Cell viability (CellTiter-Glo), SK-LU-1. The experiment is classed as cell-based. The settings on record: Homo sapiens, SK-LU-1, 144 h; cell viability after 6 days. As to the method: (§2) All cell lines (HT29, A427, A498, SKLU-1) were obtained from the American Type Culture Collection (ATCC), maintained in the recommended media supplemented with 10% (v/v) FBS, 1% (v/v) Penicillin/streptomycin and kept at 37° C. in a humidified atmosphere with 5% CO2. Cells were seeded in 96 wp format typically at a seeding density of 3500-5000 cells/well and treated after 24 hours with increasing concentration of compound from 0 to 100 μM in ½ log unit increments. Cell viability was assessed after 72 hours (HT29, A427) or after 6 days (SKLU-1, A498) by CellTiter-Glo® as recommended by the manufacturer's instructions (Promega). Analysis and EC50 values were derived using GraphPadPrism.

Experiment [11] relates to A498 cells. The experiment is described as follows: Cell viability (CellTiter-Glo), A498. The experiment is classed as cell-based. Particulars: Homo sapiens, A498, 144 h; cell viability after 6 days. On the procedure:
as §2

Experiment [12] addresses PDGFRB (PDGFR beta) (Homo sapiens (Human), UniProt P09619). The experiment is described as follows: SelectScreen Kinase Profiling: PDGFRB (PDGFR beta). Particulars: tested at 300-350 nM. The experiment is classed as biochemical.
Text: as §1

The target of experiment [13] is MAPKAPK2 (Homo sapiens (Human), UniProt P49137). The experiment is described as follows: SelectScreen Kinase Profiling: MAPKAPK2. The settings on record: tested at 300-350 nM. The experiment is classed as biochemical.
Text: as §1

Experiment [14] addresses KDR (VEGFR2) (Homo sapiens (Human), UniProt P35968). The experiment is described as follows: SelectScreen Kinase Profiling: KDR (VEGFR2). The experiment is classed as biochemical. The settings on record: tested at 300-350 nM.
Text: as §1

The target of experiment [15] is EPHA2 (Homo sapiens (Human), UniProt P29317). The experiment is described as follows: SelectScreen Kinase Profiling: EPHA2. The settings on record: tested at 300-350 nM. The experiment is classed as biochemical.
Text: as §1

The target of experiment [16] is PRKCB1 (PKC beta I) (Homo sapiens (Human), UniProt P05771). The experiment is described as follows: SelectScreen Kinase Profiling: PRKCB1 (PKC beta I). Particulars: tested at 300-350 nM. The experiment is classed as biochemical.
Text: as §1

In experiment [17] the target is CSNK2A1 (CK2 alpha 1) (Homo sapiens (Human), UniProt P68400). The experiment is described as follows: SelectScreen Kinase Profiling: CSNK2A1 (CK2 alpha 1). The experiment is classed as biochemical. Particulars: tested at 300-350 nM.
Text: as §1

Experiment [18] concerns the target DYRK3 (Homo sapiens (Human), UniProt O43781). The experiment is described as follows: SelectScreen Kinase Profiling: DYRK3. The experiment is classed as biochemical. Particulars: tested at 300-350 nM.
Text: as §1

The target in experiment [19] is RET (Homo sapiens (Human), UniProt P07949). The experiment is described as follows: SelectScreen Kinase Profiling: RET. The experiment is classed as biochemical. Particulars: tested at 300-350 nM.
The target in experiment [20] is PIM1 (Homo sapiens (Human), UniProt P11309). The experiment is described as follows: SelectScreen Kinase Profiling: PIM1. The experiment is classed as biochemical. Particulars: tested at 300-350 nM.
Text: as §1

Experiment [21] has as its target IGF1R (Homo sapiens (Human), UniProt P08069). The experiment is described as follows: SelectScreen Kinase Profiling: IGF1R. The experiment is classed as biochemical. Particulars: tested at 300-350 nM.
Text: as §1

Experiment [22] concerns the target PLK1 (Homo sapiens (Human), UniProt P53350). The experiment is described as follows: SelectScreen Kinase Profiling: PLK1. The experiment is classed as biochemical. Particulars: tested at 300-350 nM.
Text: as §1

For experiment [23], the target named is CHEK1 (CHK1) (Homo sapiens (Human), UniProt O14757). The experiment is described as follows: SelectScreen Kinase Profiling: CHEK1 (CHK1). The experiment is classed as biochemical. Particulars: tested at 300-350 nM.
Text: as §1

EGFR (ErbB1), sequence (P00533 25-1210): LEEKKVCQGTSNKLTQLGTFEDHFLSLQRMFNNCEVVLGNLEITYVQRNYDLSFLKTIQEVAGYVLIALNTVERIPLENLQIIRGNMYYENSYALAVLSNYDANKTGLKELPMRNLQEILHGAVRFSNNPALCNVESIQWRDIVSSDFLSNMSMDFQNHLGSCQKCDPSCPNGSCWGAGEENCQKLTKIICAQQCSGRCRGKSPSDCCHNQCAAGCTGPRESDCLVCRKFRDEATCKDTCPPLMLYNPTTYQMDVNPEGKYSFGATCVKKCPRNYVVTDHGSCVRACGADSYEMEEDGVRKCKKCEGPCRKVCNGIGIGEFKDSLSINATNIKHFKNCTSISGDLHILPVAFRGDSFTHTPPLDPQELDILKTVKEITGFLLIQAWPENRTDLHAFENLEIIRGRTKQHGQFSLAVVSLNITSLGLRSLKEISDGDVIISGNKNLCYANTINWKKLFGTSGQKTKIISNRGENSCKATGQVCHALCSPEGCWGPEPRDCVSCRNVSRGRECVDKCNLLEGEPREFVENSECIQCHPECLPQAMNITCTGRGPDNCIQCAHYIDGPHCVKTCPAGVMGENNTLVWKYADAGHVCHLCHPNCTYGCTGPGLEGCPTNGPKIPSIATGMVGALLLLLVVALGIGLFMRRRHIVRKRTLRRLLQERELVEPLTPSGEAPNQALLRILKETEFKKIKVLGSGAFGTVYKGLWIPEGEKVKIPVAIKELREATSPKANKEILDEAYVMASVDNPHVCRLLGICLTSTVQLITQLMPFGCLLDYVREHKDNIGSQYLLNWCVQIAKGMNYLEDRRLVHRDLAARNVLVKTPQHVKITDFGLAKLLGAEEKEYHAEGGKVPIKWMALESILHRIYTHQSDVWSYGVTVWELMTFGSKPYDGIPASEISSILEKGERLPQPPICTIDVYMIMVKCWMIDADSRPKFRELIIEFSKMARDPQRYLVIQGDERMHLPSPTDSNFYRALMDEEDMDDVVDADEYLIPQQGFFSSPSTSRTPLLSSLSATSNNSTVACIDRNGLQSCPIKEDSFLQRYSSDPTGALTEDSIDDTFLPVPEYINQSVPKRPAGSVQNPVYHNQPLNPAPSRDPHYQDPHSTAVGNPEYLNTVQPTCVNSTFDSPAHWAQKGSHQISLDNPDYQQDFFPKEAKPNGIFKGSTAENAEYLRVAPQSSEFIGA
KDR (VEGFR2), sequence (P35968 20-1356): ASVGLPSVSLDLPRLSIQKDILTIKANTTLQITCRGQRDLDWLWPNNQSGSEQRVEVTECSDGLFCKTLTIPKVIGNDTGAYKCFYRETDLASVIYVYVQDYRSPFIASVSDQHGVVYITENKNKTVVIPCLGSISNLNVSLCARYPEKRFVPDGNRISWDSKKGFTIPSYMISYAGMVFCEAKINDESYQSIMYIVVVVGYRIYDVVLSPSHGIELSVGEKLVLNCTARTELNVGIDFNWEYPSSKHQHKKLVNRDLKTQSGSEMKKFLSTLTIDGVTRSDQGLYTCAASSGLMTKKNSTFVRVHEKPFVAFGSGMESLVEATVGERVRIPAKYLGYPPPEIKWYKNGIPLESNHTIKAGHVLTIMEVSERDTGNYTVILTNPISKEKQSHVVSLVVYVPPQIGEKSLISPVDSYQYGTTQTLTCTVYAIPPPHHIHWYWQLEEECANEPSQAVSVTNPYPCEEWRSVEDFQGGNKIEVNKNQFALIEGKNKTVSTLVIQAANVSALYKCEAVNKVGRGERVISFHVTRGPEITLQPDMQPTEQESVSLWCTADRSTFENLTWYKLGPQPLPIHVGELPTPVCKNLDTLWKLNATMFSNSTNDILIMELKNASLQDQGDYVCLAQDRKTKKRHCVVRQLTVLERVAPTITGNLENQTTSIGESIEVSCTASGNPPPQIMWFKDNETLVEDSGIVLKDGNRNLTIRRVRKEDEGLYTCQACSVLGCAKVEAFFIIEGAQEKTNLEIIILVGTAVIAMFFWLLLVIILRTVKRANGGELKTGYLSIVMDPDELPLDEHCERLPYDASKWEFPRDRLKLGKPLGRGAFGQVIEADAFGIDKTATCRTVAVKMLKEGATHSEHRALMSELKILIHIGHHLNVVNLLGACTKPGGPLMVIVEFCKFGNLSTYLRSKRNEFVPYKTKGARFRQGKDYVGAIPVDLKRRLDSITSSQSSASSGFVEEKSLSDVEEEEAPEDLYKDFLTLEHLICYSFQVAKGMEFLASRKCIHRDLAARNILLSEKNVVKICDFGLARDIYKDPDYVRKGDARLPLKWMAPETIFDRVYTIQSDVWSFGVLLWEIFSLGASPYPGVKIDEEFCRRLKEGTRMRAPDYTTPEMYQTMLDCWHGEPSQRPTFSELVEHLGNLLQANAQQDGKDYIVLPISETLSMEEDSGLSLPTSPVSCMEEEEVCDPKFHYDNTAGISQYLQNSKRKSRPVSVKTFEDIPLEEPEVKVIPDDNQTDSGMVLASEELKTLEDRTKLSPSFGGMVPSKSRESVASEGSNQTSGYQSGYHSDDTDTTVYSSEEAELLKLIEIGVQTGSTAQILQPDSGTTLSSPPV
CSNK2A1 (CK2 alpha 1), sequence (P68400 whole entry): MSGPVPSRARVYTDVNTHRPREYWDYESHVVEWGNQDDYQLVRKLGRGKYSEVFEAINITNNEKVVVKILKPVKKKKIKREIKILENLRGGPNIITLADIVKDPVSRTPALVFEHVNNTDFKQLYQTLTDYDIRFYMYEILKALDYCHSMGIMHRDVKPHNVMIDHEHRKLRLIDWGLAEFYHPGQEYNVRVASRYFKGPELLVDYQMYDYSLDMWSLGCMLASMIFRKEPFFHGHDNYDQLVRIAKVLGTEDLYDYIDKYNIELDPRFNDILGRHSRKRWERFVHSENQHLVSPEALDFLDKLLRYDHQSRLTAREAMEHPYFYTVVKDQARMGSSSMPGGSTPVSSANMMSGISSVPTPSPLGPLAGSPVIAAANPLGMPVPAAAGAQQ
ERBB2 (HER2), sequence (P04626 23-1255): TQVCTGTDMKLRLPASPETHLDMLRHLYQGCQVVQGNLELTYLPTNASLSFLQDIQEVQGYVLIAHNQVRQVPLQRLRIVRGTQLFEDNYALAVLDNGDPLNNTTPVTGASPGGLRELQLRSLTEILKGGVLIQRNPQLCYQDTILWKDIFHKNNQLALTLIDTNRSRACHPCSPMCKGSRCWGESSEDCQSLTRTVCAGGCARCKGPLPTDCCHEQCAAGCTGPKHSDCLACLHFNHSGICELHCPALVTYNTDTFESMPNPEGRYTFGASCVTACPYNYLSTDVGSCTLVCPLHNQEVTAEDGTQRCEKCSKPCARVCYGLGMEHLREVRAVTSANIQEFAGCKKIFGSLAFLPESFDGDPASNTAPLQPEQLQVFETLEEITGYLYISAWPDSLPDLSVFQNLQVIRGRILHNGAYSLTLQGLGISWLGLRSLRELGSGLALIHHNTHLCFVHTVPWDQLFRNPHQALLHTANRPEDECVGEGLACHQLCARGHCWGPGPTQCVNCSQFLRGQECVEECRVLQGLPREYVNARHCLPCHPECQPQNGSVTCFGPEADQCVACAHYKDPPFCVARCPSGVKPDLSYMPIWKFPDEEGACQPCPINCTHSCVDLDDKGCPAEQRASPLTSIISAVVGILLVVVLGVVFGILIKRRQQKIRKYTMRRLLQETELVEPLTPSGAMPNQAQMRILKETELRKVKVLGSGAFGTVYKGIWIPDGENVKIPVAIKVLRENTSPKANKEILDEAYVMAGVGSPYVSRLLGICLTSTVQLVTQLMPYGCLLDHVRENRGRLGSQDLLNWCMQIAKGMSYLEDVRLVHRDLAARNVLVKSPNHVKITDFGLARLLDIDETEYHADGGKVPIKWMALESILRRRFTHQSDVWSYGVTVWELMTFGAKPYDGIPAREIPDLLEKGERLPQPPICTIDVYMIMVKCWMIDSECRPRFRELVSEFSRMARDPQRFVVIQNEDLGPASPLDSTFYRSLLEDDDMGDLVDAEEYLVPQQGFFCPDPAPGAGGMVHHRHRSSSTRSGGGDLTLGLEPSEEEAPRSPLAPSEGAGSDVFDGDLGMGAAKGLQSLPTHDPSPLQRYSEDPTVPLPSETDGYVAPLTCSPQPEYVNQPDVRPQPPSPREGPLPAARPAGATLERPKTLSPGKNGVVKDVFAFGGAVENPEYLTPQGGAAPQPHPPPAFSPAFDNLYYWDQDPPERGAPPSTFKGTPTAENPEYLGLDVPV
PIM1, sequence (P11309 whole entry): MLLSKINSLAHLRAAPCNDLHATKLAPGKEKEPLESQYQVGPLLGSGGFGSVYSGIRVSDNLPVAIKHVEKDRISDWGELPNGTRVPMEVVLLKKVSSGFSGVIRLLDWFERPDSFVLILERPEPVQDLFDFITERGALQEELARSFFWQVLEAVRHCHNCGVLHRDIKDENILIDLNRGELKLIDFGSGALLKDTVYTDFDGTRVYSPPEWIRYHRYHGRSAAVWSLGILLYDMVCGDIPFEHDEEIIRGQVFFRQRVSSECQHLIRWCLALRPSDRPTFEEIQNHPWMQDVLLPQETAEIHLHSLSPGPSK
ACVR1B (ALK4), sequence (P36896 24-505): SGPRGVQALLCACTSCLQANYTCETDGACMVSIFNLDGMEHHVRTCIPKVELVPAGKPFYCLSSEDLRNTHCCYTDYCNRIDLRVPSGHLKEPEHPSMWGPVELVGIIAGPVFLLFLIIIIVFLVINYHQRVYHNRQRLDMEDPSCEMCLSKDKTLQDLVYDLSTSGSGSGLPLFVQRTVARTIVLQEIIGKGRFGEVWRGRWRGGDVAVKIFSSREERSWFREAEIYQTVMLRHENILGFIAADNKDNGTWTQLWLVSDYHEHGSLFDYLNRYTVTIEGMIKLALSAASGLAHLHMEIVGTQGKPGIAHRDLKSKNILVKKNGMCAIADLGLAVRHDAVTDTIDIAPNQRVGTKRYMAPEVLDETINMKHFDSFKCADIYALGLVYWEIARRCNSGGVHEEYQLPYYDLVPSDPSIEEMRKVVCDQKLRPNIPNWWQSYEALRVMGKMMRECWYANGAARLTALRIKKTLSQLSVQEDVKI

Turning to `C=CCn1c(=O)c2cnc(Nc3ccc(N4CCN(C)CC4)cc3)nc2n1-c1cccc(N=S(C)(C)=O)n1` [Example 5, 1-(6-{[Dimethyl(oxo)-λ^6-sulfanylidene]amino}pyridine-2-yl)-6-{[4-(4-methylpiperazin-1-yl)phenyl]amino}-2-(prop-2-en-1-yl)-1H,2H,3H-pyrazolo[3,4-d]pyrimidin-3-one], the “inhibition of SRC” value in experiment [1] is given as “− (inhibition under 50% (tested at 300-350 nM))”. Further, the “inhibition of MAP4K4 (HGK)” value in experiment [2] is “− (inhibition under 50% (tested at 300-350 nM))”. The “inhibition of ERBB2 (HER2)” value in [3] is listed as “− (inhibition under 50% (tested at 300-350 nM))”. In experiment [4], the “inhibition of PHKG2” value is reported as “− (inhibition under 50% (tested at 300-350 nM))”. Further, the “inhibition of EGFR (ErbB1)” value in [5] is given as “− (inhibition under 50% (tested at 300-350 nM))”. Moreover, the “inhibition of MAP2K1 (MEK1)” value in [6] is recorded as “− (inhibition under 50% (tested at 300-350 nM))”. In addition, the “inhibition of IKBKB (IKK beta)” value in experiment [7] is given as “− (inhibition under 50% (tested at 300-350 nM))”. Further, the “inhibition of PRKACA (PKA)” value in [8] is reported as “− (inhibition under 50% (tested at 300-350 nM))”. In experiment [9], the “inhibition of ACVR1B (ALK4)” value is on record as “− (inhibition under 50% (tested at 300-350 nM))”. Also, the EC50 in experiment [10] came out at 12 nM; in experiment [11] it was 25 nM. Besides, in [12], the “inhibition of PDGFRB (PDGFR beta)” value is “− (inhibition under 50% (tested at 300-350 nM))”. The “inhibition of MAPKAPK2” value in experiment [13] is recorded as “− (inhibition under 50% (tested at 300-350 nM))”. Also, in experiment [14], the “inhibition of KDR (VEGFR2)” value is given as “− (inhibition under 50% (tested at 300-350 nM))”. For the same compound, the “inhibition of EPHA2” value in [15] is listed as “− (inhibition under 50% (tested at 300-350 nM))”. Besides, the “inhibition of PRKCB1 (PKC beta I)” value in [16] is on record as “− (inhibition under 50% (tested at 300-350 nM))”. In addition, the “inhibition of CSNK2A1 (CK2 alpha 1)” value in experiment [17] is “− (inhibition under 50% (tested at 300-350 nM))”. Besides, the “inhibition of DYRK3” value in [18] is reported as “− (inhibition under 50% (tested at 300-350 nM))”. In experiment [19], the “inhibition of RET” value is on record as “− (inhibition under 50% (tested at 300-350 nM))”. In addition, the “inhibition of PIM1” value in experiment [20] was “− (inhibition under 50% (tested at 300-350 nM))”. Further, in [21], the “inhibition of IGF1R” value is given as “− (inhibition under 50% (tested at 300-350 nM))”. Besides, the “inhibition of PLK1” value in [22] is given as “− (inhibition under 50% (tested at 300-350 nM))”. Moreover, the “inhibition of CHEK1 (CHK1)” value in experiment [23] was “− (inhibition under 50% (tested at 300-350 nM))”.
